Reference: patent US11130769B2 (Prelude Therapeutics Incorporated, priority 2018, dated 2021)
pIC50, pKi: −log10 of the molar value.

Columns and labels:
[1] = test system: H929 cells; assay: Cell viability assay (H929 10 FBS); format: cell-based; conditions: Homo sapiens, NCI-H929, 24 hours, read-out: H929_10FBS IC50
Method: Cell Viability Assay (H929 10 FBS)
Dispense 10 μL aliquot of prepared H929 cells (1:1 ratio of cells:Trypan Blue (#1450013, Bio-Rad)) onto cell counting slide (#145-0011, Bio-Rad) and obtain cell density and cell viability using cell counter (TC20, Bio-Rad). Remove appropriate volume of resuspended cells from culture flask to accommodate 4000 cells/well @ 10 μL/well. Transfer H929 cells to 50 mL conical (#430290, Corning). Spin down at 1000 rpm for 5 min using tabletop centrifuge (SPINCHRON 15, Beckman). Discard supernatant and resuspend cell pellet in modified RPMI 1640 (#10-040-CV, Corning) cell culture media containing 10% FBS (F2422-500 ML, Sigma), sodium pyruvate (100 mM) (#25-000-CL, Corning), HEPES buffer (1 M) (#25-060-CL, Corning) and glucose (200 g/L) (A24940-01, Gibco) to a cell density of 400,000 cells/mL. Dispense 10 μL of resuspended H929 cells per well in 384-well small volume TC treated plate (#784080, Greiner Bio-one) using standard cassette (#50950372, Thermo Scientific) on Multi-drop Combi (#5840310, Thermo Scientific) in laminar flow cabinet. Dispense compounds onto plates using digital liquid dispenser (D300E, Tecan). Incubate plates in humidified tissue culture incubator @ 37° C. for 24 hours. Add 10 μL of prepared CellTiTer-Glo® detection buffer (G7570, Promega) or ATPlite 1 Step detection reagent (#6016731, Perkin Elmer) to each well of 384-well plate using small tube cassette (#24073295, Thermo Scientific) on Combi multi drop, incubate @ RT for 30-60 min. Read plates with microplate reader (PheraStar, BMG Labtech) using 384 well luminescence mode.

[2] = molecular target: MCL-1 (Homo sapiens (Human), UniProt Q07820); assay: Cell free Mcl-1:Bim affinity assay (fluorescence polarization competition); format: binding; conditions: 15 nM MCL-1, 5 nM FITC-Bim, 1 hour at room temperature; class symbols; read-out: BIM_Ki
Chain of MCL-1 (Q07820 whole entry): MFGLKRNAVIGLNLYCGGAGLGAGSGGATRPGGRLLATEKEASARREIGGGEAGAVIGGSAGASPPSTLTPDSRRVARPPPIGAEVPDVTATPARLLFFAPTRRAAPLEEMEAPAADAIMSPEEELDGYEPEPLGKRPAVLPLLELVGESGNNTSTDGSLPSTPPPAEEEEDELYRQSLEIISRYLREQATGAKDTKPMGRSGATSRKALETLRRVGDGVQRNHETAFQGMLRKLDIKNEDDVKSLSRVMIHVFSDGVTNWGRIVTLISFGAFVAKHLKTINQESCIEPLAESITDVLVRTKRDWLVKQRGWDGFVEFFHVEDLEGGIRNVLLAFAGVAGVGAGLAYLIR
Method: The binding affinity of each compound was measured via a fluorescence polarization competition assay, in which the compound competes for the same binding site with the ligand, and thus leads to a dose-dependent anisotropy reduction. The tracer ligand utilized was a fluorescein isothiocyanate labelled peptide (FITC-[…]) derived from Bim (GenScript).
The assay was carried out in black half-area 96-well NBS plate (Corning), containing 15 nM of MCL-1 (BPS Bioscience), 5 nM of FITC-Bim and 3-fold serial diluted test compounds in a total volume of 50 μL of assay buffer (20 mM HEPES, 50 mM NaCl, 0.002% Tween 20, 1 mM TCEP, and 1% DMSO). The reaction plate was incubated for 1 hour at room temperature. The change of anisotropy is measured with an Envision multimode plate reader (PerkinElmer) at emission wavelength 535 nm. Fluorescence polarization was calculated in mP unit and the percentage inhibition was calculated by % inhibition=100×(mPDMSO−mP)/(mPDMSO−mPPC), in which mPDMSO is the DMSO control, and mPpc is the positive control. IC50 values were determined from a 10-point dose response curve by fitting the percent inhibition against compound concentration using the GraphPad Prism software. The inhibition constant Ki was subsequently calculated according to the Nikolovska-Coleska's equation (Anal. Biochem., 2004, 332, 261),
[formula] • where [I]50 is the concentration of the free inhibitor at 50% inhibition, [L]50 is the concentration of the free labeled ligand at 50% inhibition, [P]0 is the concentration of the free protein at 0% inhibition, and Kd is the dissociation constant of the protein-ligand complex. See Table F. Caspase 3/7 Activity Assay

pIC50 [1] | pKi [2] | SMILES
< 6.00 | 7.00 to 9.00 | CO[C@@H]1/C=C/COC2(CCC2)C(=O)NS(=O)(=O)c2ccc3c(c2)N(C[C@@H]2CC[C@H]21)C[C@@]1(CCCc2cc(Cl)ccc21)CO3 [Example 31, (3R,6R,7R,8E,22S)-6′-Chloro-7-methoxy-12,12-(1,3-propylene)-15,15-dioxo-spiro[11,20-dioxa-15-thia-1,14-diazatetracyclo[14.7.2.03,6.019,24]pentacosa[8,16(25),17,19(24)]tetraene-22,1′-tetralin]-13-one]
> 6.30 | > 9.00 | CC1(C)OC/C=C/[C@H](O)[C@@H]2CC[C@H]2CN2C[C@@]3(CCCc4cc(Cl)ccc43)COc3ccc(cc32)S(=O)(=O)NC1=O [Example 32, (3R,6R,7S,8E,22S)-6′-Chloro-7-hydroxy-12,12-dimethyl-15,15-dioxo-spiro[11,20-dioxa-15-thia-1,14-diazatetracyclo[14.7.2.03,6.019,24]pentacosa-8,16,18,24-tetraene-22,1′-tetralin]-13-one]
> 6.30 | > 9.00 | CC1(C)OC/C=C\[C@H](O)[C@@H]2CC[C@H]2CN2C[C@@]3(CCCc4cc(Cl)ccc43)COc3ccc(cc32)S(=O)(=O)NC1=O [Example 33, (3R,6R,7S,8Z,22S)-6′-Chloro-7-hydroxy-12,12-dimethyl-15,15-dioxo-spiro[11,20-dioxa-15-thia-1,14-diazatetracyclo[14.7.2.03,6.019,24]pentacosa-8,16,18,24-tetraene-22,1′-tetralin]-13-one]
> 6.30 | > 9.00 | CN(C)C(=O)O[C@H]1/C=C/COC(C)(C)C(=O)NS(=O)(=O)c2ccc3c(c2)N(C[C@@H]2CC[C@H]21)C[C@@]1(CCCc2cc(Cl)ccc21)CO3 [Example 34, [(3R,6R,7S,8E,22S)-6′-Chloro-12,12-dimethyl-3,5,5-trioxo-spiro[11,20-dioxa-15-thia-1,14-diazatetracyclo[14.7.2.03,6.019,24]pentacosa-8,16,18,24-tetraene-22,1′-tetralin]-7-yl] N,N-dimethylcarbamate]
< 6.00 | 7.00 to 9.00 | CN(C)C(=O)O[C@H]1/C=C\COC(C)(C)C(=O)NS(=O)(=O)c2ccc3c(c2)N(C[C@@H]2CC[C@H]21)C[C@@]1(CCCc2cc(Cl)ccc21)CO3 [Example 35, [(3R,6R,7S,8Z,22S)-6′-Chloro-12,12-dimethyl-13,15,15-trioxo-spiro[11,20-dioxa-15-thia-1,14-diazatetracyclo[14.7.2.03,6.019,24]pentacosa-8,16,18,24-tetraene-22,1′-tetralin]-7-yl] N,N-dimethylcarbamate]
> 6.00 | > 9.00 | CC1(C)OC/C=C/[C@@H](O)[C@@H]2CC[C@H]2CN2C[C@@]3(CCCc4cc(Cl)ccc43)COc3ccc(cc32)S(=O)(=O)NC1=O [Example 36, (3R,6R,7R,8E,22S)-6′-Chloro-7-hydroxy-12,12-dimethyl-15,15-dioxo-spiro[11,20-dioxa-15-thia-1,14-diazatetracyclo[14.7.2.03,6.019,24]pentacosa-8,16,18,24-tetraene-22,1′-tetralin]-13-one]
> 6.30 | > 9.00 | CN(C)C(=O)O[C@@H]1/C=C/COC(C)(C)C(=O)NS(=O)(=O)c2ccc3c(c2)N(C[C@@H]2CC[C@H]21)C[C@@]1(CCCc2cc(Cl)ccc21)CO3 [Example 37, [(3R,6R,7R,8E,22S)-6′-Chloro-12,12-dimethyl-13,15,15-trioxo-spiro[11,20-dioxa-15-thia-1,14-diazatetracyclo[14.7.2.03,6.019,24]pentacosa-8,16,18,24-tetraene-22,1′-tetralin]-7-yl] N,N-dimethylcarbamate]
> 6.30 | > 9.00 | O=C1NS(=O)(=O)c2ccc3c(c2)N(C[C@@H]2CC[C@H]2[C@H](O)/C=C/COC12CC2)C[C@@]1(CCCc2cc(Cl)ccc21)CO3 [Example 38, (3R,6R,7R,8E,22S)-6′-Chloro-7-hydroxy-12,12-ethylene-15,15-dioxo-spiro[11,20-dioxa-15-thia-1,14-diazatetracyclo[14.7.2.03,6.019,24]pentacosa[8,16(25),17,19(24)]tetraene-22,1′-tetralin]-13-one]
> 6.00 | > 9.00 | CN(C)C(=O)O[C@@H]1/C=C/COC2(CC2)C(=O)NS(=O)(=O)c2ccc3c(c2)N(C[C@@H]2CC[C@H]21)C[C@@]1(CCCc2cc(Cl)ccc21)CO3 [Example 39, [(3R,6R,7R,8E,22S)-6′-Chloro-12,12-ethylene-13,15,15-trioxo-spiro[11,20-dioxa-15-thia-1,14-diazatetracyclo[14.7.2.03,6.019,24]pentacosa-8,16,18,24-tetraene-22,1′-tetralin]-7-yl] N,N-dimethylcarbamate]
> 6.30 | > 9.00 | O=C1NS(=O)(=O)c2ccc3c(c2)N(C[C@@H]2CC[C@H]2[C@@H](O)/C=C/COC12CC2)C[C@@]1(CCCc2cc(Cl)ccc21)CO3 [Example 40, (3R,6R,7S,8E,22S)-6′-Chloro-7-hydroxy-12,12-ethylene-15,15-dioxo-spiro[11,20-dioxa-15-thia-1,14-diazatetracyclo[14.7.2.03,6.019,24]pentacosa[8,16(25),17,19(24)]tetraene-22,1′-tetralin]-13-one]
> 6.30 | > 9.00 | CN(C)C(=O)O[C@H]1/C=C/COC2(CC2)C(=O)NS(=O)(=O)c2ccc3c(c2)N(C[C@@H]2CC[C@H]21)C[C@@]1(CCCc2cc(Cl)ccc21)CO3 [Example 41, [(3R,6R,7S,8E,22S)-6′-Chloro-12,12-ethylene-13,15,15-trioxo-spiro[11,20-dioxa-15-thia-1,14-diazatetracyclo[14.7.2.03,6.019,24]pentacosa-8,16,18,24-tetraene-22,1′-tetralin]-7-yl] N,N-dimethylcarbamate]
> 6.30 | 7.00 to 9.00 | CO[C@@H]1/C=C/CN(C)C(C)(C)C(=O)NS(=O)(=O)c2ccc3c(c2)N(C[C@@H]2CC[C@H]21)C[C@@]1(CCCc2cc(Cl)ccc21)CO3 [Example 42, (3R,6R,7R,8E,22S)-6′-Chloro-7-methoxy-11,12,12-trimethyl-15,15-dioxo-spiro[20-oxa-15-thia-1,11,14-triazatetracyclo[14.7.2.03,6.019,24]pentacosa-8,16,18,24-tetraene-22,1′-tetralin]-13-one]
< 6.00 | 7.00 to 9.00 | CN1C/C=C/[C@H](O)[C@@H]2CC[C@H]2CN2C[C@@]3(CCCc4cc(Cl)ccc43)COc3ccc(cc32)S(=O)(=O)NC(=O)C1(C)C [Example 43, (3R,6R,7S,8E,22S)-6′-Chloro-7-hydroxy-11,12,12-trimethyl-15,15-dioxo-spiro[20-oxa-15-thia-1,11,14-triazatetracyclo[14.7.2.03,6.019,24]pentacosa-8,16,18,24-tetraene-22,1′-tetralin]-13-one]
> 6.30 | > 9.00 | CN(C)C(=O)O[C@H]1/C=C/CN(C)C(C)(C)C(=O)NS(=O)(=O)c2ccc3c(c2)N(C[C@@H]2CC[C@H]21)C[C@@]1(CCCc2cc(Cl)ccc21)CO3 [Example 44, [(3R,6R,7S,8E,22S)-6′-chloro-11,12,12-trimethyl-13,15,15-trioxo-spiro[20-oxa-15-thia-1,11,14-triazatetracyclo[14.7.2.03,6.019,24]pentacosa-8,16,18,24-tetraene-22,1′-tetralin]-7-yl] N,N-dimethylcarbamate]
